Tested on: 926638-142-R-J1-PDC complex spheroid viability
Assay: Anticancer human tumor 926638-142-R-J1-PDC patient-derived endometrial carcinoma cell line growth inhibition [POLQ]
Conditions: for IC50: curve of first compound; for viability, T/C: stronger effect = lower value
How it was run: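 Three-cell-type spheroids modelling solid tumor plus stroma served as the readout system; POL inhibitors were tested individually and in combination, concentration ranges set by clinical Cmax where known.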

[1] = second compound 0.0316 µM, first compound 0.0316 µM
[2] = second compound 0.0316 µM, first compound 0.1 µM
[3] = second compound 0.0316 µM, first compound 0.316 µM
[4] = second compound 0.0316 µM, first compound 1 µM
[5] = second compound 0.0316 µM, first compound 3.16 µM
[6] = second compound 0.0316 µM, first compound 10 µM
[7] = second compound 0.1 µM, first compound 0.0316 µM
[8] = second compound 0.1 µM, first compound 0.1 µM
[9] = second compound 0.1 µM, first compound 0.316 µM
[10] = second compound 0.1 µM, first compound 1 µM
[11] = second compound 0.1 µM, first compound 3.16 µM
[12] = second compound 0.1 µM, first compound 10 µM
[13] = second compound 0.316 µM, first compound 0.0316 µM
[14] = second compound 0.316 µM, first compound 0.1 µM
[15] = second compound 0.316 µM, first compound 0.316 µM
[16] = second compound 0.316 µM, first compound 1 µM
[17] = second compound 0.316 µM, first compound 3.16 µM
[18] = second compound 0.316 µM, first compound 10 µM
[19] = second compound 1 µM, first compound 0.0316 µM
[20] = second compound 1 µM, first compound 0.1 µM
[21] = second compound 1 µM, first compound 0.316 µM
[22] = second compound 1 µM, first compound 1 µM
[23] = second compound 1 µM, first compound 3.16 µM
[24] = second compound 1 µM, first compound 10 µM
[25] = second compound 3.16 µM, first compound 0.0316 µM
[26] = second compound 3.16 µM, first compound 0.1 µM
[27] = second compound 3.16 µM, first compound 0.316 µM
[28] = second compound 3.16 µM, first compound 1 µM
[29] = second compound 3.16 µM, first compound 3.16 µM
[30] = second compound 3.16 µM, first compound 10 µM
[31] = second compound 10 µM, first compound 0.0316 µM
[32] = second compound 10 µM, first compound 0.1 µM
[33] = second compound 10 µM, first compound 0.316 µM
[34] = second compound 10 µM, first compound 1 µM
[35] = second compound 10 µM, first compound 3.16 µM
[36] = second compound 10 µM, first compound 10 µM
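Further: spheroids exposed to drugs for one week before readout.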
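Wherever viability, T/C is given: percent viability relative to DMSO vehicle control wells set as 100%.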

With `CC(C)n1c(=O)n(C)c2cnc3cc(F)c(-c4ccc(OCCCN5CCCCC5)nc4)cc3c21` + COC1C(OC(N)=O)C(O)C(Oc2ccc3c(O)c(NC(=O)c4ccc(O)c(CC=C(C)C)c4)c(=O)oc3c2C)OC1(C)C the IC50 (second compound 0.0316 µM) was > 10 µM, the IC50 (second compound 0.1 µM) was > 10 µM and the IC50 (second compound 0.316 µM) was > 10 µM. For the same compound, the IC50 (second compound 1 µM) was > 10 µM, the IC50 (second compound 3.16 µM) was > 10 µM and the IC50 (second compound 10 µM) was > 10 µM. The viability, T/C [1] was 87.3%, the viability, T/C [2] was 131% and the viability, T/C [3] was 131%. The viability, T/C [4] was 94.1%, the viability, T/C [5] was 87.2% and the viability, T/C [6] was 88.7%. The viability, T/C [7] was 98.7%, the viability, T/C [8] was 89.8% and the viability, T/C [9] was 110%. The viability, T/C [10] was 107%, the viability, T/C [11] was 90.3% and the viability, T/C [12] was 93.5%. The viability, T/C [13] was 101%, the viability, T/C [14] was 104% and the viability, T/C [15] was 108%. It also gave a viability, T/C [16] of 90.2%, a viability, T/C [17] of 86.6% and a viability, T/C [18] of 89%. For the same compound, the viability, T/C [19] was 119%, the viability, T/C [20] was 104% and the viability, T/C [21] was 104%. The viability, T/C [22] was 119%, the viability, T/C [23] was 81.9% and the viability, T/C [24] was 90.2%. For the same compound, the viability, T/C [25] was 87.4%, the viability, T/C [26] was 107% and the viability, T/C [27] was 101%. For the same compound, the viability, T/C [28] was 109%, the viability, T/C [29] was 88.2% and the viability, T/C [30] was 105%. The viability, T/C [31] was 114%, the viability, T/C [32] was 104% and the viability, T/C [33] was 114%. It also gave a viability, T/C [34] of 100%, a viability, T/C [35] of 89.5% and a viability, T/C [36] of 78.5%.

For `CC1COCCN1c1cc(-c2ccnn2C)c2ccnc(-c3ccn[nH]3)c2n1` (stereo unspecified) + COC1C(OC(N)=O)C(O)C(Oc2ccc3c(O)c(NC(=O)c4ccc(O)c(CC=C(C)C)c4)c(=O)oc3c2C)OC1(C)C, the IC50 (second compound 0.0316 µM) was 0.455 µM, the IC50 (second compound 0.1 µM) was 0.403 µM and the IC50 (second compound 0.316 µM) was 0.517 µM. The IC50 (second compound 1 µM) was 0.531 µM, the IC50 (second compound 3.16 µM) was 0.493 µM and the IC50 (second compound 10 µM) was 0.558 µM. The viability, T/C [1] was 111%, the viability, T/C [2] was 89.4% and the viability, T/C [3] was 58.2%. It also gave a viability, T/C [4] of 32.8%, a viability, T/C [5] of 12.9% and a viability, T/C [6] of 9.13%. It also gave a viability, T/C [7] of 89.4%, a viability, T/C [8] of 81.5% and a viability, T/C [9] of 53.2%. For the same compound, the viability, T/C [10] was 30.9%, the viability, T/C [11] was 11.5% and the viability, T/C [12] was 7.32%. It also gave a viability, T/C [13] of 107%, a viability, T/C [14] of 91.6% and a viability, T/C [15] of 68.8%. For the same compound, the viability, T/C [16] was 25.9%, the viability, T/C [17] was 13.6% and the viability, T/C [18] was 7.15%. The viability, T/C [19] was 96.3%, the viability, T/C [20] was 92.5% and the viability, T/C [21] was 67.6%. It also gave a viability, T/C [22] of 28.3%, a viability, T/C [23] of 11.3% and a viability, T/C [24] of 7.92%. For the same compound, the viability, T/C [25] was 90.6%, the viability, T/C [26] was 80.3% and the viability, T/C [27] was 64.5%. The viability, T/C [28] was 28.3%, the viability, T/C [29] was 15.1% and the viability, T/C [30] was 8.17%. It also gave a viability, T/C [31] of 91.5%, a viability, T/C [32] of 87.6% and a viability, T/C [33] of 66.8%. For the same compound, the viability, T/C [34] was 32.6%, the viability, T/C [35] was 13.8% and the viability, T/C [36] was 9.27%.

`CC1COCCN1c1cc(C2(S(C)(=N)=O)CC2)nc(-c2ccnc3[nH]ccc23)n1` (stereo unspecified) + COC1C(OC(N)=O)C(O)C(Oc2ccc3c(O)c(NC(=O)c4ccc(O)c(CC=C(C)C)c4)c(=O)oc3c2C)OC1(C)C was tested, and the IC50 (second compound 0.0316 µM) was 5.67 µM, the IC50 (second compound 0.1 µM) was 7.87 µM and the IC50 (second compound 0.316 µM) was 6.15 µM. For the same compound, the IC50 (second compound 1 µM) was 5.99 µM, the IC50 (second compound 3.16 µM) was 5.86 µM and the IC50 (second compound 10 µM) was 5.68 µM. For the same compound, the viability, T/C [1] was 119%, the viability, T/C [2] was 99.4% and the viability, T/C [3] was 110%. For the same compound, the viability, T/C [4] was 88.1%, the viability, T/C [5] was 64.9% and the viability, T/C [6] was 35.5%. For the same compound, the viability, T/C [7] was 96%, the viability, T/C [8] was 107% and the viability, T/C [9] was 109%. The viability, T/C [10] was 82.7%, the viability, T/C [11] was 71% and the viability, T/C [12] was 44.5%. The viability, T/C [13] was 107%, the viability, T/C [14] was 98% and the viability, T/C [15] was 115%. The viability, T/C [16] was 83.1%, the viability, T/C [17] was 77.2% and the viability, T/C [18] was 31.9%. It also gave a viability, T/C [19] of 121%, a viability, T/C [20] of 101% and a viability, T/C [21] of 94%. It also gave a viability, T/C [22] of 84.4%, a viability, T/C [23] of 77.2% and a viability, T/C [24] of 31.8%. It also gave a viability, T/C [25] of 93.1%, a viability, T/C [26] of 106% and a viability, T/C [27] of 114%. The viability, T/C [28] was 99.3%, the viability, T/C [29] was 70.4% and the viability, T/C [30] was 32.4%. It also gave a viability, T/C [31] of 97.6%, a viability, T/C [32] of 91.4% and a viability, T/C [33] of 100%. It also gave a viability, T/C [34] of 89.2%, a viability, T/C [35] of 71.1% and a viability, T/C [36] of 29.8%.

Source: PubChem BioAssay AID1963826 (Molecular Pharmacology Branch, DTP, NCI, 2024)
